From patent US4405634A, “Imidazole derivatives for treating myocardial infarction” (Burroughs Wellcome Co., priority 1977, dated 1983)

Key:
TXA2 synthetase = molecular target: T1, TXA2 synthetase (Equus caballus, UniProt A0A9L0T8T9); assay: thromboxane production from labelled arachidonic acid by homogenised horse platelets (concentration to reduce the enzyme activity by 50%); type: biochemical; conditions: horse platelet homogenate, pH 7.4, 5 min preincubation, 3 min at 37° C. with arachidonic acid, read-out: ED50 (the source's name) (converted)
T1 construct: arachidonic acid substrate, thromboxane B2 measured by radio-TLC
T1 sequence (A0A9L0T8T9 2-534): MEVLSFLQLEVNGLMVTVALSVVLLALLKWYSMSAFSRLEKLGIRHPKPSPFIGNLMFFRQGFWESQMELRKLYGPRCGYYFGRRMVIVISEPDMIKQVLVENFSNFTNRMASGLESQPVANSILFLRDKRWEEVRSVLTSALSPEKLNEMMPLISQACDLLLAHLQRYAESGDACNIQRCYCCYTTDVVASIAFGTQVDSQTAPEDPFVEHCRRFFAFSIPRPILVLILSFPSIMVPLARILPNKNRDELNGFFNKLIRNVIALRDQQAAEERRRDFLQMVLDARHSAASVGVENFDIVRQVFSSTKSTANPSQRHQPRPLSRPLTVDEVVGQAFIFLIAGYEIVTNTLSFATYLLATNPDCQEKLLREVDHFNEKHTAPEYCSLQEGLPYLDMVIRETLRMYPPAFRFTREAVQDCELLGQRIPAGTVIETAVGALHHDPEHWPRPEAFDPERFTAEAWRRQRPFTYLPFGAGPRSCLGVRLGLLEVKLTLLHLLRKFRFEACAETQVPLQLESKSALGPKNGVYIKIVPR
T1 sequence (F7BQR7 24-599 partner): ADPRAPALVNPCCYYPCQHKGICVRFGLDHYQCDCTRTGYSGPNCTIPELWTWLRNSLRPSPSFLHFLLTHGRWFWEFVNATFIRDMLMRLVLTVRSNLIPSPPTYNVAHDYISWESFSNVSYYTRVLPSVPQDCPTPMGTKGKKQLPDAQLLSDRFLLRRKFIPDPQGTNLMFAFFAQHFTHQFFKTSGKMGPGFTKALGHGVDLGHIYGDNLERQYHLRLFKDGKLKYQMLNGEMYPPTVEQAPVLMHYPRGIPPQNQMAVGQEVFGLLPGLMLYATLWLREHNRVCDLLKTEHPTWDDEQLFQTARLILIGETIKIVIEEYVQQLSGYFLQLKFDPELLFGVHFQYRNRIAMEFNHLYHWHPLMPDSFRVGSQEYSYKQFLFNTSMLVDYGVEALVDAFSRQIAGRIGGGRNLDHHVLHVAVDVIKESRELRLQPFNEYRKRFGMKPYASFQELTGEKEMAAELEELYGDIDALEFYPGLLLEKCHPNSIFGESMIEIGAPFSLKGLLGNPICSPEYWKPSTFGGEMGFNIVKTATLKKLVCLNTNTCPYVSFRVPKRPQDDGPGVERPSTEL
Procedure: (§1) Horse platelets were prepared from whole horse blood by differential centrifugation. Approximately 10^6 platelets were homogenised in 1 ml 100 mM Tris buffer pH 7.4. Various concentrations of active compound were added and the reaction sets incubated for 5 minutes at ambient temperature. To each tube was added 20 nM of arachidonic acid containing 10^6 DPM of labelled arachidonic acid and the tubes incubated for 3 minutes at 37° C. in a shaking water bath. After incubation the radioactive products were extracted from the acidified aqueous phase with ethyl acetate and after concentration resolved by thin layer chromotography on silica gel with chloroform/methanol/acetic acid/water (90:8:1:0.8) as a developing solvent. The amount of thromboxane produced was measured by scraping the radioactive zone corresponding to thromboxane B2 and estimating the radioactivity in a liquid scintillation counter.
The concentration of active compound to reduce the enzyme activity by 50% (ED50) was established.

[1] = tested on: PGE, PGF and PGD (anti-aggregatory-prostaglandin generating enzymes); assay: selectivity: amount of PGE, PGF and PGD produced by homogenised horse platelets; type: biochemical; set-up: key: O indicates no selectivity; + low selectivity; ++ medium selectivity; conditions: the greater the selectivity, the more anti-aggregating prostaglandins are produced
Procedure: as §1
The selectivity of the active compounds was measured in a similar manner to that described above and the amount of PGE, PGF and PGD produced was determined. The greater the selectivity, the more of the anti-aggregating prostaglandins are produced.
The ED50 and Selectivity results are shown in Table A in which O indicates no selectivity; + low selectivity and ++ medium selectivity.

serum cholesterol = conditions: U.K. Pat. No. 1 364 312; Biochem. Pharmacol. 24, 1902-1903, 1975; cited from earlier work
[2] = tested on: enzymic conversion of the endoperoxides (PGG2 and PGH2) to thromboxane A2; conditions: platelet microsomes; Moncada et al., Prostaglandins, 13/4, 611-618, 1977; cited from earlier work
platelet clumps = assay: disaggregation of platelet clumps
platelet aggregation = assay: inhibition of platelet aggregation in vivo

Row | Compound | IC50 (TXA2 synthetase) [µM] | Selectivity [1] | further results
1 | Clc1cccc(Cl)c1C=CCn1ccnc1 [1-[3-(2,6-dichlorophenyl)prop-2-enyl]imidazole] | 3.95 | + | 
2 | CCCCCCCCCCCCn1ccnc1 [1-n-dodecylimidazole] |  |  | lowering serum cholesterol levels (serum cholesterol): capable of lowering serum cholesterol levels
3 | Cn1ccnc1 [1-methylimidazole] |  |  | inhibition of the enzymic conversion of PGG2 and PGH2 to thromboxane A2 [2]: some degree of inhibition
4 | c1c[nH]cn1 [Imidazole] |  |  | inhibition of the enzymic conversion of PGG2 and PGH2 to thromboxane A2 [2]: some degree of inhibition
5 | Cc1ccc(Cn2ccnc2)cc1C [1-(3,4-Dimethylbenzyl)imidazole, 1-(3,4-dimethylbenzyl)imidazole] | 32.2 | ++ | disaggregating platelet clumps (platelet clumps): capable of disaggregating platelet clumps; inhibiting platelet aggregation in vivo (platelet aggregation): capable of inhibiting platelet aggregation in vivo
6 | Clc1ccc(C=CCn2ccnc2)c(Cl)c1 [1-[3-(2,4-dichlorophenyl)prop-2-enyl]imidazole] | 16.2 | + | 
7 | Cc1cc(C)c(Cn2ccnc2)c(C)c1 [1-(2,4,6-Trimethylbenzyl)imidazole, 1-(2,4,6-trimethylbenzyl)imidazole] | 17 | ++ | 
